For 20 molecules, IC50 results are on record in US10479780B2, “Aminopyrazole derivatives” (Chugai Seiyaku Kabushiki Kaisha, priority 2015, dated 2019).

Where two headings read alike, the source gives them in different places.

Type in all cases: biochemical
The target of assay [1] is T1, human Src enzyme (Homo sapiens, UniProt P12931).
T1 construct: purchased Carna Biosciences, Inc. 08-173
Description: Src enzyme inhibitory activity (time-resolved fluorometry, biotinylated peptide phosphorylation). To be noted: read-out: SRC_IC50. Put shortly: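 Compounds were tested for blocking tyrosine phosphorylation of a biotinylated peptide substrate by recombinant human Src. Phosphorylated product was quantified by time-resolved fluorometry using europium cryptate and XL665 conjugates, and IC50 was calculated against the compound-free control.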

In assay [2] the target is T2, human Lck enzyme (Homo sapiens, UniProt P06239).
T2 construct: purchased Carna Biosciences, Inc. 08-170
T2 sequence (P06239 whole entry): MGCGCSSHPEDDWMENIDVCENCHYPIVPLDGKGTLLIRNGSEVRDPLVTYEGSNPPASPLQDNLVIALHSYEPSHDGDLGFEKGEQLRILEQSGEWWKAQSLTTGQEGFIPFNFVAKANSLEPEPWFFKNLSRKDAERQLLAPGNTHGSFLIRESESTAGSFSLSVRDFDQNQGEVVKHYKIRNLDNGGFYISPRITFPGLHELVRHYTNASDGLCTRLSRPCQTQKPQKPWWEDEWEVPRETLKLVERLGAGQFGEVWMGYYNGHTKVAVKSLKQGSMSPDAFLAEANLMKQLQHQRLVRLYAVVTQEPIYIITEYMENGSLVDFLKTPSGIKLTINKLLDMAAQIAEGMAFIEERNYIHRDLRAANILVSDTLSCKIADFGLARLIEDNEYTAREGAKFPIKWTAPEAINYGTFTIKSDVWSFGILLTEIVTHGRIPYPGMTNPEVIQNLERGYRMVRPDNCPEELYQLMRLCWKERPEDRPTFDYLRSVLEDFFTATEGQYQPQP
Description: Lck enzyme inhibitory activity (time-resolved fluorometry, biotinylated peptide phosphorylation). Particulars: read-out: LCK_IC50. Put shortly:
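Readout pairs a europium cryptate-labelled anti-phosphotyrosine antibody with XL665-streptavidin, measured by time-resolved fluorescence. IC50 derived from percent inhibition against untreated controls.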

Assay [3] concerns the target T3, human Yes1 enzyme (Homo sapiens, UniProt P07947).
T3 construct: made in house
Put plainly: Yes1 enzyme inhibitory activity (time-resolved fluorometry, biotinylated peptide phosphorylation). Particulars: read-out: YES_IC50. Put shortly: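 Inhibition was expressed against a compound-free control to give IC50, using TR-FRET read-out (Eu-cryptate anti-pTyr antibody, streptavidin-XL665).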

Setting [4] is: biotinylated peptide phosphorylation.

T3 sequence (P07947 whole entry): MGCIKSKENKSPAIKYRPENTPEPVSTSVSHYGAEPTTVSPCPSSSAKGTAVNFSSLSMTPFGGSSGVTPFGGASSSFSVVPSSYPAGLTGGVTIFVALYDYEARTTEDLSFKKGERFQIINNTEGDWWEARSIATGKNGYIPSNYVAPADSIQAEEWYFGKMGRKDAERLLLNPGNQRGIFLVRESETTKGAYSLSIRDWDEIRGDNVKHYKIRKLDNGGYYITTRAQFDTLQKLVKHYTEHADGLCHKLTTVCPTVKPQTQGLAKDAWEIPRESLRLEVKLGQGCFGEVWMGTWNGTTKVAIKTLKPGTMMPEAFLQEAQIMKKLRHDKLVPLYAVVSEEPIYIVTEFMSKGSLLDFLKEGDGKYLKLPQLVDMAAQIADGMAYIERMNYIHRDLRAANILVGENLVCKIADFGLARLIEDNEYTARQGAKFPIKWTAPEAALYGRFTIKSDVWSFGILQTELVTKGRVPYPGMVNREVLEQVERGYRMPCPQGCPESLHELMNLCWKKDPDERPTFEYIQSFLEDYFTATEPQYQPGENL
T1 sequence (P12931 whole entry): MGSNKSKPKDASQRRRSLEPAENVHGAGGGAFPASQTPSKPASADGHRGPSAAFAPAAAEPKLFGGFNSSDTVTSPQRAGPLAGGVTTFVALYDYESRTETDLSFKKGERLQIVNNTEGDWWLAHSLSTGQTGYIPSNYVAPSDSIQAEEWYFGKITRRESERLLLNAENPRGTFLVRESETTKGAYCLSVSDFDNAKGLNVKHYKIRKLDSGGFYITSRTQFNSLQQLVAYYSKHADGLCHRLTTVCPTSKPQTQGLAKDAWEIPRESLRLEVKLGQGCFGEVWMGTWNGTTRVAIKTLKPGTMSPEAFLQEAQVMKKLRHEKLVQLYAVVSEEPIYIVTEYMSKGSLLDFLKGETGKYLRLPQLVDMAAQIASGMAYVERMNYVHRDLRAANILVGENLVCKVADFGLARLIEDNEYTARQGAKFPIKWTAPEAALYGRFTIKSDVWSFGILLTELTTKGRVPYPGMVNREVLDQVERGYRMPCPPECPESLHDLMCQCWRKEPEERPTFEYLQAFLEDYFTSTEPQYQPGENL

Turning to `Cc1cc2cc(C(=O)c3cnn(-c4ccc(Oc5ccccc5F)c(C)c4F)c3N)[nH]c2cc1NS(C)(=O)=O` [Example 5-1-207, N-[2-[5-ainino-1-[2-fluoro-4-(2-fluorophenoxy)-3-methylphenyl]pyrazole-4-carbonyl]-5-methyl-1H-indol-6-yl]methanesulfonamide], the values for the IC50 in assay [1], in assay [2] and in assay [3] were 350 nM, 82 nM and 1.9 nM, respectively.

As for `Cc1cc(Oc2ccccc2F)ccc1-n1ncc(C(=O)c2cc3cc(F)c(NS(=O)(=O)NCCO)cc3[nH]2)c1N` [Example 4-6-002, [5-amino-1-[4-(2-fluorophenoxy)-2-methylphenyl]pyrazol-4-yl]-[5-fluoro-6-(2-hydroxyethylsulfamoylamino)-1H-indol-2-yl]methanone], the IC50 in assay [1] (setting [4]) is 16 nM; in assay [2] (setting [4]), 4.6 nM; in assay [3] (setting [4]), 0.35 nM.

With `CCN(c1cc2[nH]c(C(=O)c3cnn(-c4cnc(Oc5c(F)cccc5F)cc4C)c3N)cc2cc1F)S(C)(=O)=O` [Example 4-2-126], the results for the IC50 in assay [1] (setting [4]), in assay [2] (setting [4]) and in assay [3] (setting [4]) were 13 nM, 2 nM and 1.3 nM, respectively.

With `COc1cc2cc(C(=O)c3cnn(-c4cnc(Oc5ccccc5F)cc4C)c3N)[nH]c2cc1NC(=O)N1CCOCC1` [Example 4-12-002, N-[2-[5-amino-1-[6-(2-fluorophenoxy)-4-methylpyridin-3-yl]pyrazole-4-carbonyl]-5-methoxy-1H-indol-6-yl]morpholine-4-carboxamide], the IC50 was found to be 40 nM in assay [1] (setting [4]), 8 nM in assay [2] (setting [4]) and 3.2 nM in assay [3] (setting [4]).

As for `Cc1cc(Oc2ccccc2F)ncc1-n1ncc(C(=O)c2cc3cc(F)c(NS(=O)(=O)c4cccc(F)c4)cc3[nH]2)c1N` [Example 5-1-554, N-[2-[5-amino-1-[6-(2-fluorophenoxy)-4-methylpyridin-3-yl]pyrazole-4-carbonyl]-5-fluoro-1H-indol-6-yl]-3-fluorobenzenesulfonamide], the IC50 in assay [1] (setting [4]) amounted to 1500 nM; in assay [2] (setting [4]), 260 nM; in assay [3] (setting [4]), 13 nM.

On to `Cc1cc(Oc2ccccc2F)ncc1-n1ncc(C(=O)c2cc3cc(N4CCOCC4)c(N4CCCS4(=O)=O)cc3[nH]2)c1N` [Example 4-25-007, [5-amino-1-[6-(2-fluorophenoxy)-4-methylpyridin-3-yl]pyrazol-4-yl]-[6-(1,1-dioxo-1,2-thiazolidin-2-yl)-5-morpholin-4-yl-1H-indol-2-yl]methanone], for which the figures for the IC50 in assay [1] (setting [4]), in assay [2] (setting [4]) and in assay [3] (setting [4]) were 23 nM, 5.2 nM and 1.1 nM, respectively.

For the molecule `Cc1cc2cc(C(=O)c3cnn(-c4cnc(Oc5ccccc5F)cc4C)c3N)[nH]c2cc1NS(=O)(=O)c1cnc(N(C)C)nc1` [Example 5-1-577, N-[2-[5-amino-1-[6-(2-fluorophenoxy)-4-methylpyridin-3-yl]pyrazole-4-carbonyl]-5-methyl-1H-indol-6-yl]-2-(dimethylamino) pyrimidine-5-sulfonamide], the IC50 in assay [1] (setting [4]) is 1100 nM; in assay [2] (setting [4]), 380 nM; in assay [3] (setting [4]) it was 6.6 nM.

With `Cc1cc(Oc2ccccc2F)ccc1-n1ncc(C(=O)c2cc3cc(OCC(F)F)c(N4C(=O)NC5(CCN(Cc6ccccc6)CC5)C4=O)cc3[nH]2)c1N` [Example 5-1-277, 3-[2-[5-amino-1-[4-(2-fluorophenoxy)-2-methylphenyl]pyrazole-4-carbonyl]-5-(2,2-difluoroethoxy)-1H-indol-6-yl]-8-benzyl-1,3,8-triazaspiro[4.5]decane-2,4-dione], the values for the IC50 in assay [1], in assay [2] and in assay [3] were 39 nM, 12 nM and 1.5 nM, respectively.

`Cc1cc(Oc2c(F)cccc2F)ncc1-n1ncc(C(=O)c2cc3cc(OC4CCN(C(C)C)CC4)c(N4CCOCC4)cc3[nH]2)c1N` [Example 5-1-185, [5-amino-1-[6-(2,6-difluorophenoxy)-4-methylpyridin-3-yl]pyrazol-4-yl]-[6-morpholin-4-yl-5-(1-propan-2-ylpiperidin-4-yl)oxy-1H-indol-2-yl]methanone]: the values for the IC50 in assay [1], in assay [2] and in assay [3] were 2.5 nM, 1.7 nM and 0.36 nM, respectively.

Take `Cc1cc2cc(C(=O)c3cnn(-c4ccc(Oc5c(F)cccc5F)cc4C)c3N)[nH]c2cc1NS(C)(=O)=O` [Example 5-1-092, N-[2-[5-amino-1-[4-(2,6-difluorophenoxy)-2-methylphenyl]pyrazole-4-carbonyl]-5-methyl-1H-indol-6-yl]methanesulfonamide]: the IC50 came to 16 nM in assay [1], 2.8 nM in assay [2] and 0.91 nM in assay [3].

Turning to `Cc1cc(-n2ncc(C(=O)c3cc4cc(C)c(N5C(=O)NC6(COC6)C5=O)cc4[nH]3)c2N)ccc1Oc1ccccc1F` [Example 5-1-475, 7-[2-[5-amino-1-[4-(2-fluorophenoxy)-3-methylphenyl]pyrazole-4-carbonyl]-5-methyl-1H-indol-6-yl]-2-oxa-5,7-diazaspiro[3.4] octane-6,8-dione], the IC50 in assay [1] (setting [4]) was found to be 1400 nM; in assay [2] (setting [4]) it was 71 nM; in assay [3] (setting [4]), 8.2 nM.

Turning to `Cc1cc(-n2ncc(C(=O)c3cc4cc(OC5CCN(C6CCC6)CC5)c(Br)cc4[nH]3)c2N)ccc1Oc1ccccc1F` [Example 5-1-218, [5-amino-1-[4-(2-fluorophenoxy)-3-methylphenyl]pyrazol-4-yl]-[6-bromo-5-(1-cyclobutylpiperidin-4-yl)oxy-1H-indol-2-yl] methanone], the IC50 in assay [1] is 220 nM; in assay [2], 39 nM; in assay [3], 0.64 nM.

Regarding `Cc1cc(Oc2ccccc2F)ncc1-n1ncc(C(=O)c2cc3cc(OCC(F)F)c(NS(=O)(=O)c4cc(F)cc(F)c4)cc3[nH]2)c1N` [Example 5-1-420, N-[2-[5-amino-1-[6-(2-fluorophenoxy)-4-methylpyridin-3-yl]pyrazole-4-carbonyl]-5-(2,2-difluoroethoxy)-1H-indol-6-yl]-3,5-difluorobenzenesulfonamide], the IC50 was 600 nM in assay [1] (setting [4]), 160 nM in assay [2] (setting [4]) and 6.3 nM in assay [3] (setting [4]).

With `CC(=O)N1CCC(c2cc3[nH]c(C(=O)c4cnn(-c5cnc(Oc6ccccc6F)cc5C)c4N)cc3cc2OCC(F)F)CC1` [Example 4-17-020, 1-[4-[2-[5-amino-1-[6-(2-fluorophenoxy)-4-methylpyridin-3-yl]pyrazole-4-carbonyl]-5-(2,2-difluoroethoxy)-1H-indol-6-yl]piperidin-1-yl]ethanone], the results for the IC50 in assay [1] (setting [4]), in assay [2] (setting [4]) and in assay [3] (setting [4]) were 8.3 nM, 3.3 nM and 0.81 nM, respectively.

As to `Cc1cc(Oc2c(F)cccc2F)ncc1-n1ncc(C(=O)c2cc3cc(OC(F)F)c(Br)cc3[nH]2)c1N` [Example 5-1-149, [5-amino-1-[6-(2,6-difluorophenoxy)-4-methylpyridin-3-yl]pyrazol-4-yl]-[6-bromo-5-(difluoromethoxy)-1H-indol-2-yl]methanone], the results for the IC50 in assay [1], in assay [2] and in assay [3] were 57 nM, 43 nM and 5 nM, respectively.

As for `Cc1cc(Oc2c(F)cccc2F)ncc1-n1ncc(C(=O)c2cc3cc(OCC(F)F)c(NS(=O)(=O)CCCF)cc3[nH]2)c1N` [Example 4-24-032, N-[2-[5-amino-1-[6-(2,6-difluorophenoxy)-4-methylpyridin-3-yl]pyrazole-4-carbonyl]-5-(2,2-difluoroethoxy)-1H-indol-6-yl]-3-fluoropropane-1-sulfonamide], the IC50 in assay [1] (setting [4]) came to 57 nM; in assay [2] (setting [4]), 14 nM; in assay [3] (setting [4]), 0.64 nM.

Take `Cc1cc(Oc2c(F)cccc2F)ncc1-n1ncc(C(=O)c2cc3cc(OCC(F)F)c(N4C(=O)C(C)(C)NC4=S)cc3[nH]2)c1N` [Example 4-23-036, 3-{2-{5-amino-1-[6-(2,6-difluorophenoxy)-4-methylpyridin-3-yl]pyrazole-4-carbonyl}-5-(2,2-difluoroethoxy)-1H-indol-6-yl}-5,5-dimethyl-2-sulfanylideneimidazolidin-4-one]: the values for the IC50 in assay [1] (setting [4]), in assay [2] (setting [4]) and in assay [3] (setting [4]) were 31 nM, 6.4 nM and 1 nM, respectively.

Regarding `Cc1cc(-n2ncc(C(=O)c3cc4cc(OC5CCN(C(C)C)CC5)c(N5CCC(N6CCOCC6)CC5)cc4[nH]3)c2N)ccc1Oc1ccccc1F` [Example 5-1-182, [5-amino-1-[4-(2-fluorophenoxy)-3-methylphenyl]pyrazol-4-yl]-[6-(4-morpholin-4-ylpiperidin-1-yl)-5-(1-propan-2-ylpiperidin-4-yl)oxy-1H-indol-2-yl]methanone], the IC50 in assay [1] was 24 nM; in assay [2], 2.7 nM; in assay [3] it was 0.17 nM.

With `Cc1cc(Oc2ccccc2F)cc(F)c1-n1ncc(C(=O)c2cc3cc(OC(F)F)c(N4CCCS4(=O)=O)cc3[nH]2)c1N` [Example 4-25-003, [5-amino-1-[2-fluoro-4-(2-fluorophenoxy)-6-methylphenyl]pyrazol-4-yl]-[5-(difluoromethoxy)-6-(1,1-dioxo-1,2-thiazolidin-2-yl)-1H-indol-2-yl]methanone], the IC50 worked out at 130 nM in assay [1] (setting [4]), 19 nM in assay [2] (setting [4]) and 3.9 nM in assay [3] (setting [4]).

Consider `Cc1cc(Oc2ccccc2F)ccc1-n1ncc(C(=O)c2cc3cc(OC(F)F)c(NC4CN(S(C)(=O)=O)C4)cc3[nH]2)c1N` [Example 4-23-023, [5-amino-1-[4-(2-fluorophenoxy)-2-methylphenyl]pyrazol-4-yl]-[5-(difluoromethoxy)-6-[(1-methylsulfonylazetidin-3-yl)amino]-1H-indol-2-yl]methanone], for which the results for the IC50 in assay [1] (setting [4]), in assay [2] (setting [4]) and in assay [3] (setting [4]) were 17 nM, 5.8 nM and 0.45 nM, respectively.
